Data reported in US11850334B2, “Immobilised biological entities” (CARMEDA AB, priority 2018, dated 2023).

System: FXa
Experiment: Anti-FXa activity of heparin fragments in solution, compared with International Standard (Evaluation Method C)
Assay type: biochemical
Settings: not immobilized, calculated towards Low Molecular Heparin 2nd International Standard
Method: Evaluation Method C: Anti-FXa Activity Determination of Heparin Fragments in Solution, Compared with International Standard
The anticoagulant activity of the heparin fragments are determined in an anti-FXa assay. This method measures anti-FXa activity of heparin essentially according to USP<208> Anti-FXa and Anti-FIIa assays for unfractionated and low molecular weight heparins. The method is based on heparin's ability to accelerate antithrombin inhibition of FXa in vitro, where the residual FXa activity is detected using a chromogenic FXa substrate (CS 11(65)). The results expressed as IU/mg (international unit/mg) are calculated using the parallel-line model, towards the Low Molecular Heparin 2nd International Standard.
Anti-FXa activity was determined by Evaluation Method Con example 1.2 (alpha), 1.1 (beta), 2.1, 2.2 and 2.3 (see Table 3). All heparin fragments tested were in solution and not immobilized to a surface.

Row | Compound | anti-FXa activity [IU/mg]
1 | 5-Aminopentyl 2-deoxy-2-sulfamido-6-O-sulfo-α-D-glucopyranosyl-(1→4)-β-D-glucopyranosyluronic acid-(1→4)-2-deoxy-2-sulfamido-3,6-di-O-sulfo-α-D-glucopyranosyl-(1→4)-2-O-sulfo-α-L-idopyranosyluronic acid-(1→4)-2-deoxy-2-sulfamido-6-O-sulfo-β-D-glucopyranoside [Example 1.1] | 385
2 | NCCCCCO[C@H]1O[C@H](COS(=O)(=O)O)[C@@H](O[C@@H]2O[C@@H](C(=O)O)[C@@H](O[C@H]3O[C@H](COS(=O)(=O)O)[C@@H](O[C@@H]4O[C@H](C(=O)O)[C@@H](O[C@H]5O[C@H](COS(=O)(=O)O)[C@@H](O)[C@H](O)[C@H]5NS(=O)(=O)O)[C@H](O)[C@H]4O)[C@H](OS(=O)(=O)O)[C@H]3NS(=O)(=O)O)[C@H](O)[C@H]2OS(=O)(=O)O)[C@H](O)[C@H]1NS(=O)(=O)O [Example 1.2, 5-Aminopentyl 2-deoxy-2-sulfamido-6-O-sulfo-α-D-glucopyranosyl-(1→4)-β-D-glucopyranosyluronic acid-(1→4)-2-deoxy-2-sulfamido-3,6-di-O-sulfo-α-D-glucopyranosyl-(1→4)-2-O-sulfo-α-L-idopyranosyluronic acid-(1→4)-2-deoxy-2-sulfamido-6-O-sulfo-α-D-glucopyranoside] | 330
